Where “and” joins values, the source holds several entries; their conditions need not be identical. Identical values can stand only once.
Legend:
CA pentamer = conditions: ref Yant et al, Nat.Med, 2019;[4]; read-out: Binding Affinity (KD), CA pentamer; cited from earlier work
SHIV-SF162P3 = test: Repeated escalating-dose rectal SHIV challenge study (plasma viraemia by gag RT-qPCR); assay type: in vivo, rhesus macaques of Indian origin; conditions: for Proportion of animals protected: 15 weekly rectal challenges, follow-up to week 24; for First viremic timepoint: individual infected animals
Procedure: For the challenge study, 24 outbred rhesus macaques of Indian origin were assigned to the three study groups with even sex and weight distributions. All animals were housed at Alpha Genesis (Yemassee, SC), and all procedures were conducted in compliance with all relevant local, state and federal regulations and were approved by the Alpha Genesis IACUC. […] The injection sites were monitored daily by veterinary staff for 3 days. Beginning in week 1, animals in all three groups were challenged by the intrarectal route with 1 ml of RPMI containing the specified dilution of a 3.62 × 10^3 TCID50 SHIV-SF162P3 stock. At each respective time point, the challenges were performed on the same day, using the same virus stock and inoculation method across the three groups. Whole blood was collected and processed into plasma and PBMCs as necessary to assess routine haematology, clinical chemistry, viral load and serology as well as for bioanalysis of drug levels. The animals were considered to be protected if they remained SHIV negative by plasma PCR assay and seronegative by enzyme immunoassay throughout the 15-week challenge phase and the 9-week follow-up.
RNA was extracted from rhesus macaque plasma using a QIAcube high-throughput instrument and an IndiSpin QIAcube HT Pathogen kit (Qiagen). RNA standards using the SIV gag sequence were generated by AmpliCap-Max T7 High-Yield Message Maker kit (Cell Script) and were purified using an RNA Clean and Concentrator kit (Zymo Research). Log dilutions of the RNA were included with each RT–qPCR assay. Reverse transcription of standards and samples was performed using a Superscript III VILO kit (Invitrogen). qPCR was performed using forward primer 5′-[…]-3′, reverse primer 5′-[…]-3′ and fluorescently labelled primer 5′-[…]-3′ on a Quantstudio 6 Flex system (Applied Biosystems). The assay LOD was 200 copies gag per ml.
Protection against acquired infection was analysed using Cox proportional hazard regression models based on the exact partial likelihood for discrete time expressed in weeks, which explicitly accounts for the time-varying viral challenge dose in the model. The hazard ratios with 95% confidence intervals for per-exposure relative reductions in acquisition risk were calculated for the GS-CA1-treated groups, and the results were compared with those for the vehicle-treated control group. Comparisons were considered statistically significant at a two-sided alpha level of 0.05 (P < 0.05). Statistical analyses were performed using GraphPad Prism version 8.1.2, SAS version 9.4 and R Studio software version 4.0.5.

HIV-1 IIIb strain = test: High-density antiviral dose–response curves (Hill slope) against HIV-1 IIIb in MT-4 cells; assay type: cell-based

CC(C)(C#Cc1ccc(-c2ccc(Cl)c3c(NS(=O)(=O)C4CC4)nn(CC(F)F)c23)c([C@H](Cc2cc(F)cc(F)c2)NC(=O)Cn2nc(C(F)F)c3c2C(F)(F)[C@@H]2C[C@H]32)n1)S(C)(=O)=O [GS-CA1]
Kd (CA pentamer): 0.27 nM
Median weeks to viraemia (95% CI) (SHIV-SF162P3; 150 mg/kg single s.c.): 16 weeks and 16 (11, –) weeks
study week until which no viraemia was detected in the group (SHIV-SF162P3; 150 mg/kg single s.c.): 11 week
per-exposure risk reduction (SHIV-SF162P3; 150 mg/kg single s.c. vs vehicle): 87%
Proportion of animals protected (SHIV-SF162P3; 150 mg/kg single s.c.): 2/8
First viremic timepoint (SHIV-SF162P3; 150 mg/kg): 16 study week and 13 study week and 11 study week and 14 study week and 17 study week
Median weeks to viraemia (95% CI) (SHIV-SF162P3; 300 mg/kg single s.c.): Not reached (17, –)
study week until which no viraemia was detected in the group (SHIV-SF162P3; 300 mg/kg single s.c.): 17 week
per-exposure risk reduction (SHIV-SF162P3; 300 mg/kg single s.c. vs vehicle): 97%
Proportion of animals protected (SHIV-SF162P3; 300 mg/kg single s.c.): 5/8
First viremic timepoint (SHIV-SF162P3; 300 mg/kg): 17 study week
average plasma GS-CA1 at estimated mucosal infection (SHIV-SF162P3; 2 weeks before first detectable viraemia, nine infected treated animals): 31.4 nM
plasma GS-CA1 at estimated mucosal infection as multiple of rhesus paEC95 (SHIV-SF162P3; 2 weeks before first detectable viraemia, range 0.4–1.6): 1.0
Plasma SHIV viral load (SHIV-SF162P3; GS-CA1 150mg/kg group, Week 1, individual animals): 200 gag RNA copies per ml
Plasma SHIV viral load (SHIV-SF162P3; GS-CA1 150mg/kg group, Week 2, individual animals): 200 gag RNA copies per ml
Plasma SHIV viral load (SHIV-SF162P3; GS-CA1 150mg/kg group, Week 3, individual animals): 200 gag RNA copies per ml
Plasma SHIV viral load (SHIV-SF162P3; GS-CA1 150mg/kg group, Week 4, individual animals): 200 gag RNA copies per ml
Plasma SHIV viral load (SHIV-SF162P3; GS-CA1 150mg/kg group, Week 5, individual animals): 200 gag RNA copies per ml
Plasma SHIV viral load (SHIV-SF162P3; GS-CA1 150mg/kg group, Week 6, individual animals): 200 gag RNA copies per ml
Plasma SHIV viral load (SHIV-SF162P3; GS-CA1 150mg/kg group, Week 7, individual animals): 200 gag RNA copies per ml
Plasma SHIV viral load (SHIV-SF162P3; GS-CA1 150mg/kg group, Week 8, individual animals): 200 gag RNA copies per ml
Plasma SHIV viral load (SHIV-SF162P3; GS-CA1 150mg/kg group, Week 9, individual animals): 200 gag RNA copies per ml
Plasma SHIV viral load (SHIV-SF162P3; GS-CA1 150mg/kg group, Week 10, individual animals): 200 gag RNA copies per ml
Plasma SHIV viral load (SHIV-SF162P3; GS-CA1 150mg/kg group, Week 11, individual animals, 150 mg/kg): 200 gag RNA copies per ml and 2317 gag RNA copies per ml
Plasma SHIV viral load (SHIV-SF162P3; GS-CA1 150mg/kg group, Week 12, individual animals, 150 mg/kg): 200 gag RNA copies per ml and 1251253 gag RNA copies per ml
Plasma SHIV viral load (SHIV-SF162P3; GS-CA1 150mg/kg group, Week 13, individual animals, 150 mg/kg): 200 gag RNA copies per ml and 4495324 gag RNA copies per ml and 15543 gag RNA copies per ml
Plasma SHIV viral load (SHIV-SF162P3; GS-CA1 150mg/kg group, Week 14, individual animals, 150 mg/kg): 200 gag RNA copies per ml and 192698 gag RNA copies per ml and 302527 gag RNA copies per ml and 14481 gag RNA copies per ml
Plasma SHIV viral load (SHIV-SF162P3; GS-CA1 150mg/kg group, Week 15, individual animals, 150 mg/kg): 200 gag RNA copies per ml and 1636073 gag RNA copies per ml and 41252 gag RNA copies per ml and 436449 gag RNA copies per ml
Plasma SHIV viral load (SHIV-SF162P3; GS-CA1 150mg/kg group, Week 16, individual animals, 150 mg/kg): 43433 gag RNA copies per ml and 200 gag RNA copies per ml and 144532 gag RNA copies per ml and 37186 gag RNA copies per ml and 15508 gag RNA copies per ml and 62513 gag RNA copies per ml
Plasma SHIV viral load (SHIV-SF162P3; GS-CA1 150mg/kg group, Week 17, individual animals, 150 mg/kg): 28104 gag RNA copies per ml and 200 gag RNA copies per ml and 128422 gag RNA copies per ml and 4020 gag RNA copies per ml and 5872 gag RNA copies per ml and 1974 gag RNA copies per ml and 76901 gag RNA copies per ml
Plasma SHIV viral load (SHIV-SF162P3; GS-CA1 150mg/kg group, Week 18, individual animals, 150 mg/kg): 8535 gag RNA copies per ml and 200 gag RNA copies per ml and 144695 gag RNA copies per ml and 18625 gag RNA copies per ml and 13017 gag RNA copies per ml and 2250 gag RNA copies per ml and 14905 gag RNA copies per ml
Plasma SHIV viral load (SHIV-SF162P3; GS-CA1 150mg/kg group, Week 19, individual animals, 150 mg/kg): 2197 gag RNA copies per ml and 200 gag RNA copies per ml and 23783 gag RNA copies per ml and 733 gag RNA copies per ml and 4607 gag RNA copies per ml and 1586 gag RNA copies per ml and 872 gag RNA copies per ml
Plasma SHIV viral load (SHIV-SF162P3; GS-CA1 150mg/kg group, Week 20, individual animals, 150 mg/kg): 200 gag RNA copies per ml and 533 gag RNA copies per ml and 294 gag RNA copies per ml and 1229 gag RNA copies per ml
Plasma SHIV viral load (SHIV-SF162P3; GS-CA1 150mg/kg group, Week 21, individual animals, 150 mg/kg): 200 gag RNA copies per ml and 8674 gag RNA copies per ml and 2199 gag RNA copies per ml
Plasma SHIV viral load (SHIV-SF162P3; GS-CA1 150mg/kg group, Week 22, individual animals, 150 mg/kg): 200 gag RNA copies per ml and 2557 gag RNA copies per ml and 493 gag RNA copies per ml
Plasma SHIV viral load (SHIV-SF162P3; GS-CA1 150mg/kg group, Week 23, individual animals, 150 mg/kg): 200 gag RNA copies per ml and 1150 gag RNA copies per ml and 1806 gag RNA copies per ml and 218 gag RNA copies per ml
Plasma SHIV viral load (SHIV-SF162P3; GS-CA1 150mg/kg group, Week 24, individual animals, 150 mg/kg): 200 gag RNA copies per ml and 724 gag RNA copies per ml and 1367 gag RNA copies per ml
Plasma SHIV viral load (SHIV-SF162P3; GS-CA1 300mg/kg group, Week 1, individual animals): 200 gag RNA copies per ml
Plasma SHIV viral load (SHIV-SF162P3; GS-CA1 300mg/kg group, Week 2, individual animals): 200 gag RNA copies per ml
Plasma SHIV viral load (SHIV-SF162P3; GS-CA1 300mg/kg group, Week 3, individual animals): 200 gag RNA copies per ml
Plasma SHIV viral load (SHIV-SF162P3; GS-CA1 300mg/kg group, Week 4, individual animals): 200 gag RNA copies per ml
Plasma SHIV viral load (SHIV-SF162P3; GS-CA1 300mg/kg group, Week 5, individual animals): 200 gag RNA copies per ml
Plasma SHIV viral load (SHIV-SF162P3; GS-CA1 300mg/kg group, Week 6, individual animals): 200 gag RNA copies per ml
Plasma SHIV viral load (SHIV-SF162P3; GS-CA1 300mg/kg group, Week 7, individual animals): 200 gag RNA copies per ml
Plasma SHIV viral load (SHIV-SF162P3; GS-CA1 300mg/kg group, Week 8, individual animals): 200 gag RNA copies per ml
Plasma SHIV viral load (SHIV-SF162P3; GS-CA1 300mg/kg group, Week 9, individual animals): 200 gag RNA copies per ml
Plasma SHIV viral load (SHIV-SF162P3; GS-CA1 300mg/kg group, Week 10, individual animals): 200 gag RNA copies per ml
Plasma SHIV viral load (SHIV-SF162P3; GS-CA1 300mg/kg group, Week 11, individual animals): 200 gag RNA copies per ml
Plasma SHIV viral load (SHIV-SF162P3; GS-CA1 300mg/kg group, Week 12, individual animals): 200 gag RNA copies per ml
Plasma SHIV viral load (SHIV-SF162P3; GS-CA1 300mg/kg group, Week 13, individual animals): 200 gag RNA copies per ml
Plasma SHIV viral load (SHIV-SF162P3; GS-CA1 300mg/kg group, Week 14, individual animals): 200 gag RNA copies per ml
Plasma SHIV viral load (SHIV-SF162P3; GS-CA1 300mg/kg group, Week 15, individual animals): 200 gag RNA copies per ml
Plasma SHIV viral load (SHIV-SF162P3; GS-CA1 300mg/kg group, Week 16, individual animals): 200 gag RNA copies per ml
Plasma SHIV viral load (SHIV-SF162P3; GS-CA1 300mg/kg group, Week 17, individual animals, 300 mg/kg): 9063 gag RNA copies per ml and 13193 gag RNA copies per ml and 200 gag RNA copies per ml and 13143 gag RNA copies per ml
Plasma SHIV viral load (SHIV-SF162P3; GS-CA1 300mg/kg group, Week 18, individual animals, 300 mg/kg): 200 gag RNA copies per ml and 6116 gag RNA copies per ml and 1633235 gag RNA copies per ml
Plasma SHIV viral load (SHIV-SF162P3; GS-CA1 300mg/kg group, Week 19, individual animals, 300 mg/kg): 200 gag RNA copies per ml and 123639 gag RNA copies per ml
Plasma SHIV viral load (SHIV-SF162P3; GS-CA1 300mg/kg group, Week 20, individual animals, 300 mg/kg): 200 gag RNA copies per ml and 17958 gag RNA copies per ml
Plasma SHIV viral load (SHIV-SF162P3; GS-CA1 300mg/kg group, Week 21, individual animals, 300 mg/kg): 200 gag RNA copies per ml
Plasma SHIV viral load (SHIV-SF162P3; GS-CA1 300mg/kg group, Week 22, individual animals, 300 mg/kg): 200 gag RNA copies per ml
Plasma SHIV viral load (SHIV-SF162P3; GS-CA1 300mg/kg group, Week 23, individual animals, 300 mg/kg): 200 gag RNA copies per ml
Plasma SHIV viral load (SHIV-SF162P3; GS-CA1 300mg/kg group, Week 24, individual animals, 300 mg/kg): 200 gag RNA copies per ml
peak viral loads vs vehicle-treated control animals (SHIV-SF162P3; infected GS-CA1-treated animals): significantly lower
Hill slope (n) (HIV-1 IIIb strain): 3.03 ± 0.69 and 3.0 ± 0.7
